One may read the EC50 as the concentration giving half of the maximal effect.

Molecules are shown by their SMILES. Active and inactive are the calls of the source.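 How the source made its calls: active means fitted dose-response curve with goodness of fit R² above 0.5; inactive means the rest.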

These results are taken from PubChem BioAssay AID2425 (Vanderbilt High Throughput Screening Facility, 2010).

This experiment addresses Muscarinic acetylcholine receptor M1 (Rattus norvegicus) (UniProt P08482). In words: rat M1 positive allosteric modulator potency, dose response, cell-based, calcium mobilization, CHO-K1, ACh EC20 (AID 2425). Particulars: CHO-K1 rat M1, Fluo-4 calcium, PAM with ACh EC20.

Muscarinic acetylcholine receptor M1 (Rattus norvegicus), sequence (P08482 whole entry, looked up): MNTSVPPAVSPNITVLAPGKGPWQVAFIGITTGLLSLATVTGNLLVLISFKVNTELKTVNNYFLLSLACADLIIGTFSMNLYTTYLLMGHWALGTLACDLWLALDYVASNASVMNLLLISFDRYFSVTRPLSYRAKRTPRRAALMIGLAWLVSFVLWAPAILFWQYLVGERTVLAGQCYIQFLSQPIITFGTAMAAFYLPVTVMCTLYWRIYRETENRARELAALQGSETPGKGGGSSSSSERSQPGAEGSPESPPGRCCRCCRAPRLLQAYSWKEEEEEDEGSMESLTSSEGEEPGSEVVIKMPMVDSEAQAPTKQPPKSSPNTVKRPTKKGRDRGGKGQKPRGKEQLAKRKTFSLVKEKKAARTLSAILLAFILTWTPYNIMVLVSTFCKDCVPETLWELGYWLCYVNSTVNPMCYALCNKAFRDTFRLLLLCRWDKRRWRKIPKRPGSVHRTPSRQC

Take `O=C1C(=O)N(Cc2ccc(Oc3ccccc3)cc2)c2ccc(OC(F)(F)F)cc21`: under “at 30 µM (top of the series)”, the “potentiation, % max ACh” value is “inactive”.

In the case of `Cc1cc(NC(=O)CS(=O)(=O)c2cn(Cc3cccc(Cl)c3)c3ccccc23)no1`, the concentration for a half-maximal effect (EC50) is 5.86 µM.
